From US20100267743A1, “3-(PHENOXYPYRROLIDIN-3-YL-METHYL)HETEROARYL, 3-(PHENYLPYRROLIDIN-3-YLMETHOXY)HETEROARYL, AND 3-(HETEROARYLPYRROLIDIN-3-YLMETHOXY)HETEROARYL COMPOUNDS” (priority 2009, published 2010)

How the values were obtained:
NET = NET (Homo sapiens, UniProt P23975); test: hNET radioligand binding assay (3H-nisoxetine); set-up: expressed in transfected cells; host or cells: HEK-293; conditions: hNET membranes (HEK-293), 1.0 nM 3H-nisoxetine; for Ki: read-out: NET pKi (converted)
Method in brief: (§1)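 Membranes came from HEK-293 cells stably expressing hSERT (0.5 μg protein) or hNET (1 μg), with 3H-citalopram or 3H-nisoxetine respectively. Incubation was 60 min at 22° C in Tris buffer with 120 mM NaCl and 5 mM KCl, pH 7.4, followed by filtration and scintillation counting. pKi was derived by Cheng-Prusoff from IC50 and saturation-derived Kd.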

SERT = SERT (Homo sapiens, UniProt P31645); test: hSERT radioligand binding assay (3H-citalopram); set-up: expressed in transfected cells; host or cells: HEK-293; conditions: hSERT membranes (HEK-293), 1.0 nM 3H-citalopram; for Ki: read-out: SERT pKi (converted)
Sequence of SERT (P31645 whole entry): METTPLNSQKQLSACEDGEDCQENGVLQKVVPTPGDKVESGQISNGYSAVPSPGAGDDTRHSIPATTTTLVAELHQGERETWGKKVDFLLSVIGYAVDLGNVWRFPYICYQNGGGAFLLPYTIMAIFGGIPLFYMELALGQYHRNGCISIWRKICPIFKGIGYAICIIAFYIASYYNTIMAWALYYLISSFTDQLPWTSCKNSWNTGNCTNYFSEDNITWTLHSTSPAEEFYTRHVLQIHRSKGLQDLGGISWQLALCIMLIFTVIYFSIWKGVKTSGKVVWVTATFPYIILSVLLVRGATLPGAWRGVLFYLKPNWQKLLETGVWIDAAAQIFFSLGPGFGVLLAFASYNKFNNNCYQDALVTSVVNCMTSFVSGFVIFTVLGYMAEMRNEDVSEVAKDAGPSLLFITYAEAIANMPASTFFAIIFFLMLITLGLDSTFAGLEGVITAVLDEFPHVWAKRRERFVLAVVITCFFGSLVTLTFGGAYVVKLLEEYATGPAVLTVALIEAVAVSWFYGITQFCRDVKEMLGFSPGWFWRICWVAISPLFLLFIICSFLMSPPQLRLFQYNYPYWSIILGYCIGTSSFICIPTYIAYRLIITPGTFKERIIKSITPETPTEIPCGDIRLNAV
Method in brief: as §1

Sequence of NET (P23975 whole entry): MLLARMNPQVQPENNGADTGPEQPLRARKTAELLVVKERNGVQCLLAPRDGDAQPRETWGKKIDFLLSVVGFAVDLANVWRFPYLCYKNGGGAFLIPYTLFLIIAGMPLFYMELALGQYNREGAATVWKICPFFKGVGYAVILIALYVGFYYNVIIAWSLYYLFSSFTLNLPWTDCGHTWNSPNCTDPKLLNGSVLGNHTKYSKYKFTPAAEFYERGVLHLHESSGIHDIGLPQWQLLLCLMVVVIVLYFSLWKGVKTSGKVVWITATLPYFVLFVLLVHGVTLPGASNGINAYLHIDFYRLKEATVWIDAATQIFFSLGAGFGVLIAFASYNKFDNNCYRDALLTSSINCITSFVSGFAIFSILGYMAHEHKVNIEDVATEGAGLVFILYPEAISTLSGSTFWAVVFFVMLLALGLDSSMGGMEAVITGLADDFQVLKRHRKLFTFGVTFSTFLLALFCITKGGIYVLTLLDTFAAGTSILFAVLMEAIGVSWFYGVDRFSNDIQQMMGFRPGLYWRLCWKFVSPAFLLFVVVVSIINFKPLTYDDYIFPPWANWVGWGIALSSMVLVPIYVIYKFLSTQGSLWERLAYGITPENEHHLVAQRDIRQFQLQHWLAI

Structure (SMILES)	Ki (NET) [nM]	Ki (SERT) [nM]	NET pKi (NET)	SERT pKi (SERT)
COc1cc(Cl)ccc1O[C@@H](c1cncc(F)c1)[C@H]1CCNC1 [Example 1]	≤ 100	≤ 100	–	–
Clc1cncc(C(Oc2cc(Cl)c(Cl)cc2Cl)C2CCNC2)c1 [Example 2-1, 3-Chloro-5-[(R)-(S)-pyrrolidin-3-y1-(2,4,5-trichlorophenoxy)methyl]pyridine]	≤ 10000	≤ 100	–	–
COc1ccccc1O[C@H](c1cncc(Cl)c1)[C@H]1CCNC1 [Example 2-13, 3-Chloro-5-[(S)-(2-methoxyphenoxy)-(S)-pyrrolidin-3-yl-methyl]pyridine]	≤ 10000	≤ 10000	–	–
Clc1cc(Cl)cc(O[C@H](c2cncc(Cl)c2)[C@H]2CCNC2)c1 [Example 2-16, 3-Chloro-5-[(S)-(3,5-dichlorophenoxy)-(S)-pyrrolidin-3-yl-methyl]pyridine]	≤ 100	≤ 100	–	–
Fc1cc(Cl)c(O[C@H](c2cncc(Cl)c2)[C@@H]2CCNC2)c(Cl)c1 [Example 2-26, 3-Chloro-5-[(R)-(2,6-dichloro-4-fluorophenoxy)-(S)-pyrrolidin-3-yl-methy1]-pyridine]	–	–	≧5.0	≧7.0
Cc1cc(Cl)c(O[C@H](c2cncc(Cl)c2)[C@@H]2CCNC2)c(Cl)c1 [Example 2-28, 3-Chloro-5-[(R)-(2,6-dichloro-4-methylphenoxy)-(S)-pyrrolidin-3-yl-methy1]-pyridine]	–	–	≧7.0	≧7.0
Cc1cc(Cl)cc(C)c1O[C@H](c1cncc(Cl)c1)[C@@H]1CCNC1 [Example 2-29, 3-Chloro-5-[(R)-(4-chloro-2,6-dimethylphenoxy)-(S)-pyrrolidin-3-yl-methy1]-pyridine]	–	–	≧5.0	≧7.0
Cc1cc(Cl)cc(Cl)c1OC(c1cncc(Cl)c1)C1CCNC1 [Example 2-30, 3-Chloro-5-[(R)-(2,4-dichloro-6-methylphenoxy)-(S)-pyrrolidin-3-yl-methy1]-pyridine]	≤ 10000	≤ 100	–	–
Fc1cncc([C@H](Oc2cc(Cl)c(Cl)cc2Cl)[C@H]2CCNC2)c1 [Example 2-34, 3-Fluoro-5-[(R)-(S)-pyrrolidin-3-yl-(2,4,5-trichlorophenoxy)-methyl]pyridine]	≤ 10000	≤ 100	–	–
Fc1cncc([C@H](Oc2c(F)cc(F)cc2F)[C@H]2CCNC2)c1 [Example 2-35, 3-Fluoro-5-[(R)-(S)-pyrrolidin-3-yl-(2,4,6-trifluorophenoxy)-methyl]pyridine]	≤ 100	≤ 100	–	–

Further lines, with some results ahead:

Ki (NET) [nM]	Ki (SERT) [nM]	Structure (SMILES)	NET pKi (NET)	SERT pKi (SERT)
≤ 10000	≤ 100	Fc1cc(F)c(Cl)c(O[C@H](c2cncc(Cl)c2)[C@H]2CCNC2)c1Cl [Example 2-4, 3-Chloro-5-[(S)-(2,6-dichloro-3,5-difluorophenoxy)-(S)-pyrrolidin-3-yl-methyl]-pyridine]	–	–
≤ 10000	≤ 100	Fc1ccc(F)c(O[C@H](c2cncc(Cl)c2)[C@H]2CCNC2)c1Cl [Example 2-7, 3-Chloro-5-[(S)-(2-chloro-3,6-difluorophenoxy)-(S)-pyrrolidin-3-yl-methyl]-pyridine]	–	–
≤ 100	≤ 100	Fc1cc(Cl)cc(F)c1OC(c1cncc(Cl)c1)C1CCNC1 [Example 2-25, 3-Chloro-5-[(R)-(4-chloro-2,6-difluorophenoxy)-(S)-pyrrolidin-3-yl-methy1]-pyridine]	–	–
≤ 100	≤ 100	Fc1cc(Cl)cc(Cl)c1OC(c1cncc(Cl)c1)C1CCNC1 [Example 2-27, 3-Chloro-5-[(R)-(2,4-dichloro-6-fluorophenoxy)-(S)-pyrrolidin-3-yl-methy1]-pyridine]	–	–
≤ 100	≤ 100	Fc1cc(F)c(O[C@@H](c2cncc(Cl)c2)[C@H]2CCNC2)c(F)c1 [Example 2-33, 3-Chloro-5-[(R)-(S)-pyrrolidin-3-yl-(2,4,6-trifluorophenoxy)methyl]pyridine]	–	–
≤ 10000	≤ 100	Fc1cncc([C@@H](Oc2c(Cl)c(F)cc(F)c2Cl)[C@H]2CCNC2)c1 [Example 2-42, 3-[(S)-(2,6-Dichloro-3,5-difluorophenoxy)-(S)-pyrrolidin-3-yl-methyl]-5-fluoropyridine]	–	–
